According to PubChem BioAssay AID180 (DTP/NCI, 2004):
“And” between values parts separate entries of the source, which are not always exact repeats. Equal values may be shown once.

Test system: BDF1 mice, Adenocarcinoma 755 s.c., tumor weight T/C
Assay: NCI In Vivo Anticancer Drug Screen. Data for tumor model Adenocarcinoma 755 (subcutaneous) in B6D2F1 (BDF1) mice
Details: endpoint: mean tumor weight, higher = larger tumour
Method in brief: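 Values express treated (T) relative to vehicle-dosed control (C) animals, based on survival or tumour size measured after compound treatment of mice bearing a transplanted tumour.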

[1] = dose: 30.0 mg/kg/injection, schedule: Q01DX011 (ip), vehicle: carboxymethylcellulose (CMC)
[2] = dose: 60.0 mg/kg/injection, schedule: Q01DX011 (ip), vehicle: carboxymethylcellulose (CMC)
[3] = dose: 120.0 mg/kg/injection, schedule: Q01DX011 (ip), vehicle: carboxymethylcellulose (CMC)
[4] = dose: 25.0 mg/kg/injection, schedule: Q01DX011 (ip), vehicle: carboxymethylcellulose (CMC)
[5] = dose: 100.0 mg/kg/injection, schedule: Q01DX011 (ip), vehicle: carboxymethylcellulose (CMC)
[6] = dose: 25.0 mg/kg/injection, schedule: Q01DX011 (ip), vehicle: methylcellulose (MC)
[7] = dose: 50.0 mg/kg/injection, schedule: Q01DX011 (ip), vehicle: methylcellulose (MC)
[8] = dose: 125.0 mg/kg/injection, schedule: Q01DX011 (ip), vehicle: methylcellulose (MC)
[9] = dose: 7.5 mg/kg/injection, schedule: Q01DX011 (ip), vehicle: carboxymethylcellulose (CMC)

**Q.** How did the T/C (dose: 14.0 mg/kg/injection, schedule: Q01DX011 (ip), vehicle: carboxymethylcellulose (CMC)) turn out when `CC1CN1P(=S)(N1CCCC1)N1CC1C` (centres undefined) was run?
**A.** 82 % of control

**Q.** And the T/C (dose: 14.0 mg/kg/injection, schedule: Q01DX011 (ip), vehicle: saline)?
**A.** 63 % of control

**Q.** And the T/C (dose: 28.0 mg/kg/injection, schedule: Q01DX011 (ip), vehicle: carboxymethylcellulose (CMC))?
**A.** 58 % of control

**Q.** What about the T/C (dose: 28.0 mg/kg/injection, schedule: Q01DX011 (ip), vehicle: saline) of the same molecule?
**A.** 43 % of control

**Q.** And the T/C (dose: 57.0 mg/kg/injection, schedule: Q01DX011 (ip), vehicle: carboxymethylcellulose (CMC))?
**A.** 15 % of control

**Q.** And the T/C (dose: 57.0 mg/kg/injection, schedule: Q01DX011 (ip), vehicle: saline)?
**A.** 21 % of control

**Q.** With `CC(=O)OCC1OC(n2cnc3c(=O)[nH]c(N)nc32)C(OC(C)=O)C1OC(C)=O` (centres undefined) as the molecule, how does the T/C [1] read?
**A.** 59 % of control

**Q.** And the T/C [2]?
**A.** 49 % of control

**Q.** What about the T/C [3] of the same molecule?
**A.** 57 % of control

**Q.** And the T/C (dose: 240.0 mg/kg/injection, schedule: Q01DX011 (ip), vehicle: carboxymethylcellulose (CMC))?
**A.** 51 % of control

**Q.** What about the T/C (dose: 400.0 mg/kg/injection, schedule: Q01DX011 (ip), vehicle: carboxymethylcellulose (CMC)) of the same molecule?
**A.** 87 % of control

**Q.** And the T/C (dose: 600.0 mg/kg/injection, schedule: Q01DX011 (ip), vehicle: carboxymethylcellulose (CMC))?
**A.** 83 % of control

**Q.** With `Nc1nc2c(ccn2Cc2ccccc2)c(=O)[nH]1` as the molecule, how does the T/C [1] read?
**A.** 92 % of control

**Q.** And the T/C [3]?
**A.** 106 % of control

**Q.** Which T/C (dose: 17.5 mg/kg/injection, schedule: Q01DX011 (ip), vehicle: carboxymethylcellulose (CMC)) does the source give for `CCCc1c(Cl)nc(Cl)nc1Cl` here?
**A.** 54 % of control

**Q.** And the T/C [4]?
**A.** 85 % of control

**Q.** What about the T/C (dose: 35.0 mg/kg/injection, schedule: Q01DX011 (ip), vehicle: carboxymethylcellulose (CMC)) of the same molecule?
**A.** 104 % of control

**Q.** What about the T/C (dose: 50.0 mg/kg/injection, schedule: Q01DX011 (ip), vehicle: carboxymethylcellulose (CMC)) of the same molecule?
**A.** 43 % of control

**Q.** And the T/C [5]?
**A.** 44 % of control

**Q.** For `Cc1ncc(CO)c(C)c1O`, which T/C (dose: 12.5 mg/kg/injection, schedule: Q01DX011 (ip), vehicle: saline) is on record?
**A.** 48 % of control

**Q.** And the T/C (dose: 22.78 mg/kg/injection, schedule: Q01DX011 (ip), vehicle: carboxymethylcellulose (CMC))?
**A.** 81 % of control

**Q.** What about the T/C [6] of the same molecule?
**A.** 98 % of control

**Q.** And the T/C (dose: 25.0 mg/kg/injection, schedule: Q01DX011 (ip), vehicle: saline)?
**A.** 45 % of control

**Q.** And the T/C (dose: 45.57 mg/kg/injection, schedule: Q01DX011 (ip), vehicle: carboxymethylcellulose (CMC))?
**A.** 70 % of control

**Q.** And the T/C [7]?
**A.** 75 % of control

**Q.** And the T/C (dose: 50.0 mg/kg/injection, schedule: Q01DX011 (ip), vehicle: saline)?
**A.** 54 % of control

**Q.** And the T/C (dose: 59.07 mg/kg/injection, schedule: Q01DX011 (ip), vehicle: carboxymethylcellulose (CMC))?
**A.** 107 % of control

**Q.** And the T/C (dose: 75.0 mg/kg/injection, schedule: Q01DX011 (ip), vehicle: saline)?
**A.** 50 % of control

**Q.** What about the T/C (dose: 91.15 mg/kg/injection, schedule: Q01DX011 (ip), vehicle: carboxymethylcellulose (CMC)) of the same molecule?
**A.** 76 % of control

**Q.** And the T/C (dose: 100.0 mg/kg/injection, schedule: Q01DX011 (ip), vehicle: methylcellulose (MC))?
**A.** 71 % of control

**Q.** And the T/C (dose: 100.0 mg/kg/injection, schedule: Q01DX011 (ip), vehicle: saline)?
**A.** 22 % of control

**Q.** And the T/C (dose: 118.15 mg/kg/injection, schedule: Q01DX011 (ip), vehicle: carboxymethylcellulose (CMC))?
**A.** 108 % of control

**Q.** What about the T/C [8] of the same molecule?
**A.** 48 % of control

**Q.** And the T/C (dose: 150.0 mg/kg/injection, schedule: Q01DX011 (ip), vehicle: saline)?
**A.** 30 % of control

**Q.** And the T/C (dose: 182.3 mg/kg/injection, schedule: Q01DX011 (ip), vehicle: carboxymethylcellulose (CMC))?
**A.** 72 % of control

**Q.** And the T/C (dose: 200.0 mg/kg/injection, schedule: Q01DX011 (ip), vehicle: methylcellulose (MC))?
**A.** 70 % of control

**Q.** What about the T/C (dose: 236.3 mg/kg/injection, schedule: Q01DX011 (ip), vehicle: carboxymethylcellulose (CMC)) of the same molecule?
**A.** 55 % of control

**Q.** For `CC[C@H](c1ccc(O)cc1)[C@@H](CC)c1ccc(O)cc1`, which T/C (dose: 55.0 mg/kg/injection, schedule: Q01DX011 (sc), vehicle: steriod suspending solution) is on record?
**A.** 44 % of control

**Q.** Which results are given for `CC(C)Cn1cnc2c(SCc3cccc(F)c3)nc(N)nc21`?
**A.** T/C (dose: 6.25 mg/kg/injection, schedule: Q01DX011 (ip), vehicle: methylcellulose (MC)): 75 % of control; T/C (dose: 12.5 mg/kg/injection, schedule: Q01DX011 (ip), vehicle: methylcellulose (MC)): 55 % of control; T/C [6]: 15 % of control; T/C [7]: 1 % of control

**Q.** How did the T/C (dose: 56.0 mg/kg/injection, schedule: Q01DX011 (ip), vehicle: carboxymethylcellulose (CMC)) turn out when `CCOC(=O)CN=NNc1nc[nH]c1C(N)=O` was run?
**A.** 58 % of control

**Q.** And the T/C (dose: 112.0 mg/kg/injection, schedule: Q01DX011 (ip), vehicle: carboxymethylcellulose (CMC))?
**A.** 106 % of control

**Q.** What about the T/C (dose: 175.0 mg/kg/injection, schedule: Q01DX011 (ip), vehicle: carboxymethylcellulose (CMC)) of the same molecule?
**A.** 81 % of control

**Q.** What about the T/C (dose: 225.0 mg/kg/injection, schedule: Q01DX011 (ip), vehicle: carboxymethylcellulose (CMC)) of the same molecule?
**A.** 27 % of control

**Q.** What about the T/C (dose: 350.0 mg/kg/injection, schedule: Q01DX011 (ip), vehicle: carboxymethylcellulose (CMC)) of the same molecule?
**A.** 58 % of control

**Q.** `C=CCc1c[nH]c(=O)[nH]c1=O` was tested. Which T/C (dose: 67.5 mg/kg/injection, schedule: Q01DX011 (ip), vehicle: saline) did it give?
**A.** 99 % of control

**Q.** And the T/C (dose: 125.0 mg/kg/injection, schedule: Q01DX011 (ip), vehicle: saline)?
**A.** 78 % of control

**Q.** And the T/C (dose: 250.0 mg/kg/injection, schedule: Q01DX011 (ip), vehicle: saline)?
**A.** 72 % of control

**Q.** What does the source list for `CN1CC[C@]23c4c5ccc(O)c4O[C@H]2C(=O)CC[C@H]3[C@H]1C5`?
**A.** T/C (dose: 8.0 mg/kg/injection, schedule: Q01DX011 (ip), vehicle: methylcellulose (MC)): 53 % of control and 70 % of control; T/C (dose: 16.0 mg/kg/injection, schedule: Q01DX011 (ip), vehicle: methylcellulose (MC)): 50 % of control and 75 % of control; T/C (dose: 32.0 mg/kg/injection, schedule: Q01DX011 (ip), vehicle: methylcellulose (MC)): 61 % of control

**Q.** Which T/C (dose: 9.0 mg/kg/injection, schedule: Q01DX011 (ip), vehicle: saline) does the source give for `CN(C)c1ccc(Nc2c3ccccc3nc3ccccc23)cc1` here?
**A.** 70 % of control

**Q.** What about the T/C (dose: 18.0 mg/kg/injection, schedule: Q01DX011 (ip), vehicle: saline) of the same molecule?
**A.** 91 % of control

**Q.** And the T/C (dose: 35.0 mg/kg/injection, schedule: Q01DX011 (ip), vehicle: saline)?
**A.** 75 % of control

**Q.** And the T/C (dose: 70.0 mg/kg/injection, schedule: Q01DX011 (ip), vehicle: saline)?
**A.** 39 % of control

**Q.** Which T/C (dose: 0.5 mg/kg/injection, schedule: Q01DX011 (ip), vehicle: methylcellulose (MC)) does the source give for `CCc1nc(N)nc(N)c1-c1ccc(Cl)c(Cl)c1` here?
**A.** 51 % of control

**Q.** And the T/C (dose: 1.0 mg/kg/injection, schedule: Q01DX011 (ip), vehicle: methylcellulose (MC))?
**A.** 62 % of control and 71 % of control

**Q.** What about the T/C (dose: 2.0 mg/kg/injection, schedule: Q01DX011 (ip), vehicle: methylcellulose (MC)) of the same molecule?
**A.** 52 % of control

**Q.** For `CCc1c(CC(=O)O)c2cc(C)ccc2n1Cc1ccc(Cl)cc1`, which T/C (dose: 20.0 mg/kg/injection, schedule: Q01DX011 (ip), vehicle: carboxymethylcellulose (CMC)) is on record?
**A.** 87 % of control

**Q.** What about the T/C (dose: 40.0 mg/kg/injection, schedule: Q01DX011 (ip), vehicle: carboxymethylcellulose (CMC)) of the same molecule?
**A.** 119 % of control

**Q.** What about the T/C (dose: 80.0 mg/kg/injection, schedule: Q01DX011 (ip), vehicle: carboxymethylcellulose (CMC)) of the same molecule?
**A.** 97 % of control

**Q.** What about the T/C [5] of the same molecule?
**A.** 37 % of control

**Q.** For `c1ccc(CNc2ncnc3[nH]ncc23)cc1`, which T/C (dose: 4.0 mg/kg/injection, schedule: Q01DX011 (ip), vehicle: carboxymethylcellulose (CMC)) is on record?
**A.** 83 % of control

**Q.** And the T/C (dose: 8.0 mg/kg/injection, schedule: Q01DX011 (ip), vehicle: carboxymethylcellulose (CMC))?
**A.** 69 % of control

**Q.** And the T/C (dose: 16.0 mg/kg/injection, schedule: Q01DX011 (ip), vehicle: carboxymethylcellulose (CMC))?
**A.** 22 % of control

**Q.** And the T/C (dose: 31.25 mg/kg/injection, schedule: Q01DX011 (ip), vehicle: carboxymethylcellulose (CMC))?
**A.** 54 % of control

**Q.** For `Nc1nc(Cl)cc(Nc2ccc(CCO)cc2)n1`, which T/C (dose: 15.0 mg/kg/injection, schedule: Q01DX011 (ip), vehicle: methylcellulose (MC)) is on record?
**A.** 101 % of control

**Q.** And the T/C (dose: 62.0 mg/kg/injection, schedule: Q01DX011 (ip), vehicle: methylcellulose (MC))?
**A.** 77 % of control

**Q.** What about the T/C [8] of the same molecule?
**A.** 102 % of control

**Q.** What does the source list for `CCn1cnc2c(SC3CCCC3)ncnc21`?
**A.** T/C (dose: 5.0 mg/kg/injection, schedule: Q01DX011 (ip), vehicle: carboxymethylcellulose (CMC)): 16 % of control; T/C [9]: 4 % of control; T/C (dose: 10.0 mg/kg/injection, schedule: Q01DX011 (ip), vehicle: carboxymethylcellulose (CMC)): 3 % of control; T/C [4]: 14 % of control

**Q.** Which results are given for `O=C1Cc2ccccc2C(=O)N1`?
**A.** T/C [9]: 79 % of control; T/C (dose: 15.0 mg/kg/injection, schedule: Q01DX011 (ip), vehicle: carboxymethylcellulose (CMC)): 104 % of control; T/C [1]: 107 % of control; T/C [2]: 56 % of control
